Patent publication US12083082B2, “Methods for treating neurodegenerative disorders” (Alzheon, Inc., priority 2018, dated 2024)
Several values for one entry are separate records, joined by “and”; a condition that tells them apart may be missing. Equal values may be shown once. Read-outs that look alike come from different tables or passages of the source.

Assay: CSF concentrations of 3-SPA at Week 78 in North American Phase 3 tramiprosate trial (LC-MS/MS)
Type: in vivo, human
Settings: 150 mg BID tramiprosate; for concentration at 78 week: human, CSF, oral, 150 mg BID
Description: The samples were withdrawn from the freezer and shipped on dry ice to Nextcea Inc. (Woburn, MA) and stored in a freezer set to maintain−80° C. after receipt. The CSF collection and storage were carried out after subjects signed an informed consent in accordance with the ethical guidelines in the Czech Republic and good clinical practice, and according to the widely recognized consensus protocol for the standardization of CSF collection and biobanking (Viola et al., Amyloid β oligomers in Alzheimer's disease pathogenesis, treatment, and diagnosis. Acta Neuropathol 2015; 129:183-206; and Vanderstichele et al. Standardization of preanalytical aspects of cerebrospinal fluid biomarker testing for Alzheimer's disease diagnosis: A consensus paper from the Alzheimer's Biomarkers Standardization Initiative. Alzheimers Dement 2012; 8(1):65-73). Commercial ELISA kits (Innogenetics NV, Ghent, Belgium) were used for dementia biomarker analyses (Aβ1-42, tau protein, and phospho-tau), and cut off values derived from a validation study were used. CSF concentrations of 3-SPA were also quantified in 12 patients receiving the 150 mg BID dose of tramiprosate at Week 78 of the Phase 3 North American AD trial.
The 3-SPA reference material and human CSF samples were mixed with N-ethyl-N′-(3-dimethylaminopropyl) carbodiimide (EDC) and 2,2,2-trifluro ethylamine (TFEA). The samples were vortexed and reacted at room temperature for 30 minutes. The reactions were centrifuged at 4500 rpm for 5 minutes. The supernatant was transferred to a new plate for analysis. 3-SPA was identified and characterized using LC-MS and LC-MS/MS. Injections were made onto a Thermo Scientific AQUASIL 5 μm, 50×2.1 mm column using a Shimadzu autosampler and UPLC pump. Mobile phase A was 0.1% trifluoroacetic acid in water (v/v). Mobile phase B was 0.1% formic acid in 90/10 acetonitrile/water (v/v). The flow rate was 0.35 mL/min. The total running time per sample was 4 min. An API 6500 triple quadrupole mass spectrometer was used for detection. Data were acquired in negative LC-MS and LC-MS/MS modes. Representative chromatograms of 3-SPA in crude native material and human CSF derivatized with EDC and TFEA are shown in FIG. 7, FIG. 8 Panel A, and FIG. 8 Panel B. LC-MS and LC-MS/MS data were acquired using Analyst software (AB Sciex, Foster City, CA). LOQ for the LC-MS/MS method was 0.1 ng/ml with a dynamic range of 0.1 to 1000 ng/ml (r=0.99688 and % CV 5.8%±2.0; data on file). 3-SPA was identified in human CSF by matching the chromatographic retention time and by co-elution of the LC-MS/MS transition ions to the authentic 3-SPA reference standard (synthesized by Paraza Pharma, Montreal, Canada).
The levels of 3-SPA of in patients with a variety of cognition impairing diseases, including AD, ranged from 4.15 to 27.7 nM (0.64-4.27 ng/ml) (Table 1). When related to the CSF concentrations of Aβ42 monomers in AD patients (0.04 nM to 0.1 nM) (Bakan et al., ProDy: protein dynamics inferred from theory and experiments. Bioinformatics 2011; 27:1575-7; Shaw et al. Cerebrospinal fluid biomarker signature in Alzheimer's disease neuroimaging initiative subjects. Ann Neurol 2009; 65:403-13; Pannee et al. Reference measurement procedure for CSF Abeta1-42 and the CSF Abeta1-42/Abeta1-40 ratio—a crossvalidation study against Amyloid PET. J. Neurochem 2016; and Lambert et al. Diffusible, nonfibrillar ligands derived from A 1-42 are potent central nervous system neurotoxins. PNAS. 1998; 95:6448-53), there is an approximately 40-700 fold excess of 3-SPA over soluble Aβ42 monomers, which falls within the range where partial Aβ anti-oligomer aggregation activity may occur in some patients (Table 3). Furthermore, retrospective analyses of the CSF of a subset of patients from the tramiprosate Phase 3 trial were also evaluated for presence of 3-SPA, the primary metabolite of tramiprosate. […]

CSF concentration of 3-SPA, Median (Week 78): 19.3 ng/ml and 127.5 nM | CSF concentration of 3-SPA, Minimum-maximum (Week 78): 17.3-35.7 ng/ml and 114.3-235.8 nM | increase of mean CSF 3-SPA over levels observed in drug naïve patients (Week 78): 12.6 fold | CSF concentration of 3-SPA, Mean ± SD (Week 78, n=6): 22.3 ± 7.9 ng/ml and 147 ± 51.3 nM | concentration at 78 week (Week 78, n=6, read-out: CSF concentration of 3-SPA, Mean ± SD): 147 nM | concentration at 78 week (Week 78, read-out: CSF concentration of 3-SPA, Minimum-maximum): 114 to 236 nM
Structure (SMILES): O=C(O)CCS(=O)(=O)O [3-SPA, 3-sulfopropanoic acid]
